Results published in patent US20190175551A1, “MEDICINE FOR TREATING RENAL DISEASE” (Daiichi Sankyo Company, Limited, priority 2016, published 2019).

Key:
[1] = test system: patients with type 2 diabetes mellitus having albumin urine; test: Phase II randomized, placebo controlled, double-blind clinical study of compound (Ia) (Example 3); type: in vivo, human; settings: for Reduction rate of UACR (geometric mean) from baseline at the end of dosing / Remission rate of UACR: 12 weeks; for Remission rate of UACR: UACR <30 mg/g Cr at 11 and 12 weeks and decreased by 30% or more
Experimental: A clinical study targeted to patients with type 2 diabetes mellitus having albumin urine was conducted to evaluate the efficacy and safety of the like of compound
(Ia). This study is a Phase II randomized, placebo controlled, double-blind comparison study. Each of the patients was subjected to a washout period of 4 to 12 weeks followed by treatment comprising administrating placebo or compound (Ia) (0.625 mg, 1.25 mg, 2.5 mg, 5 mg) once a day over a treatment period of 12 weeks.
365 Patients in Japan who met the following criteria entered this study, and an efficacy and safety analysis set included 358 cases.
1. The patient is with type 2 diabetes mellitus; 2. The patient is 20 years old or more at the time of consent; 3. Urine albumin/creatinine ratio (UACR) is 45 mg/g Cr or more and less than 300 mg/g Cr; 4. Estimated glomerular filtration rate calculated with serum creatinine (eGFRcreat) is 30 mL/min/1.73 m^2 or more; and 5. The patient has been subjected to treatment with an angiotensin-converting enzyme inhibitor or an angiotensin II receptor antagonist (and optionally a calcium antagonist) since at least 3 months before the start of treatment.
The patient was followed up for approximately 6 weeks after the end of dosing, and evaluated for change in UACR from baseline, remission rate of UACR and numerical value of eGFR as well as safety.
Remission rate of UACR (%)=(number of subjects in remission÷number of all subjects to be analyzed)×100

[2] = test system: DOCA/sodium chloride-loaded hypertension model; test: Ameliorative effect on a renal disorder in the DOCA/sodium chloride-loaded hypertension model (kidney histopathology); type: in vivo, male WKY rats; settings: for Glomerulosclerosis score / Tubular disorder score, Cortical side / Tubular disorder score, Medullary side: 15 weeks old, score 0 to 4, mean±standard error, n=6
Experimental: Deoxycorticosterone acetate (DOCA)/sodium chloride-loaded hypertension model was prepared by the following procedure. 6 Week-old male WKY rats (WKY/Izm, SPF grade, produced by Funabashi Farm Co., Ltd.) were subjected to unilateral nephrectomy, diet containing 4% sodium chloride (4% NaCl-containing FR-2, manufactured by Funabashi Farm Co., Ltd.) was given from 7 weeks old by free feeding, and DOCA was administered subcutaneously once a week. DOCA was suspended in a 0.5% carboxymethylcellulose solution (20 mg/mL) and administered in an amount corresponding to 1 mL/kg. The group to which DOCA was not administered was designated as DOCA non-administration group and the group to which DOCA was administered was designated as DOCA administration group.
At 11 weeks old, some of the animals in the DOCA non-administration group were dissected and the other animals in the DOCA non-administration group were designated as normal group (Group 1). At the same time, some of the animals in the DOCA administration group were also dissected, and the others of the DOCA administration group were divided into the following groups (Groups 2 to 4).
Group 1: normal group, n=6 animals
Group 2; control group, n=6 animals
Group 3; compound (Ia) administration group [compound (Ia) 3 mg/kg], n=6 animals
Group 4: DOCA administration interruption+compound (Ia) administration group [compound (Ia) 3 mg/kg], n=6 animals
The dosing schedule of test drugs for each group after 11 weeks is as follows.
To Group 1, oral administration of a 0.5% methylcellulose solution was continued for 4 weeks. To Group 2, oral administration of 0.5% methylcellulose solution and subcutaneous administration (once a week) of DOCA were continued for 4 weeks. To Group 3, oral administration of compound (Ia) suspended in 0.5% methylcellulose solution (2 mL/kg) and subcutaneous administration (once a week) of DOCA were continued for 4 weeks.
To Group 4, only oral administration of compound (Ia) suspended in 0.5% methylcellulose solution (2 mL/kg) was continued for 4 weeks.
At the end of 4 weeks of administration of the test drug or the like (at the age of 15 weeks old), all animals were dissected.
At 7, 11, 13 and 15 weeks old, 24-hour urine collections were conducted using metabolic cages (2100-R, Watanabe Isolator Systems Co., Ltd.). Daily urinary protein excretion was calculated from the urine protein concentration (measured by BiOLiS 24i premium [Tokyo Boeki Medisys Inc.]) and urine volume.
At the time of dissection at 11 and 15 weeks old, the kidneys were isolated and weighed, and the kidney weight per body weight was calculated.
Furthermore, histopathological sections were prepared from a part of the isolated kidneys, and histopathological evaluation (scoring of glomerulosclerosis and tubular disorder) was conducted. For glomerulosclerosis, 30 glomeruli were selected at random for each sample, and the degree of glomerulosclerosis of each sample was quantified on the basis of 5 stages (0 to 4) to determine an average value of 30 values, which was used as a score of the sample (Uehara Y, et al., Hypertens. Res. 1992; 15, pp 17-26). For tubular disorder, for each of the cortical and medullary sides, 10 fields of view were selected for each sample, the degree of tubular disorder was quantified on the basis of 5 stages (0 to 4) to determine the average value of values for each 10 fields of view, which was used as a score of the sample (Uehara Y, et al., Hypertens. Res. 1992; 15, pp 17-26). Results are shown in Table 3 (each numerical value in the table represents the mean±standard error).

[3] = Group 3: 3 mg/kg oral for 4 weeks with continued DOCA
[4] = Group 4: DOCA administration interruption + 3 mg/kg oral for 4 weeks

For Cc1c(C(=O)Nc2ccc(S(C)(=O)=O)cc2)cn(CCO)c1-c1ccccc1C(F)(F)F (atropisomer, axis not shown) [compound (Ia), (S)-1-(2-hydroxyethyl)-4-methyl-N-[4-(methylsulfonyl)phenyl]-5-[2-(trifluoromethyl)phenyl]-1H-pyrrole-3-carboxamide], the “Reduction rate of UACR (geometric mean) from baseline at the end of dosing” value (“Reduction rate of UACR (geometric mean)” below) ([1]; 0.625 mg once a day) was 21%, the “Remission rate of UACR” value ([1]; 0.625 mg once a day) was 7.5% and the “Reduction rate of UACR (geometric mean)” value ([1]; 1.25 mg once a day) was 37%. For the same molecule, the “Remission rate of UACR” value ([1]; 1.25 mg once a day) was 12.3%, the “Reduction rate of UACR (geometric mean)” value ([1]; 2.5 mg once a day) was 50% and the “Remission rate of UACR” value ([1]; 2.5 mg once a day) was 21.2%. For the same molecule, the “Reduction rate of UACR (geometric mean)” value ([1]; 5 mg once a day) was 56%, the “Remission rate of UACR” value ([1]; 5 mg once a day) was 21.1% and the “Therapeutic effect (UACR reducing effect and increase in remission rate)” value ([1]; patients without sufficient effect on ACE inhibitor or angiotensin II receptor antagonist (optionally calcium antagonist)) was “excellent therapeutic effect”. The “Effect on renal disorders (proteinuria, renal hypertrophy, glomerulosclerosis and tubular disorder)” value ([2]; 3 mg/kg oral for 4 weeks, disease model animals) was “excellent ameliorative effect”, the Glomerulosclerosis score [2, 3] was 0.29 ± 0.05 and the “Tubular disorder score, Cortical side” value [2, 3] was 1.02 ± 0.07. The “Tubular disorder score, Medullary side” value [2, 3] was 1.73 ± 0.04, the “Effect on renal disorders versus normal group” value [2, 4] was “ameliorated almost to the normal group level” and the Glomerulosclerosis score [2, 4] was 0.20 ± 0.04. The “Tubular disorder score, Cortical side” value [2, 4] was 0.67 ± 0.06 and the “Tubular disorder score, Medullary side” value [2, 4] was 1.42 ± 0.11.
